Laboratory results reported in PMC5453931, “Cathelicidin-trypsin inhibitor loop conjugate represents a promising antibiotic candidate with protease stability” (Scientific Reports, 2017).
Values after ≈ are worked out from the molar mass of the structure shown. Where a SMILES comes first, the peptide text is derived from it.

Key:
B. subtilis = assay type: cell-based; conditions: 18 h
Protocol: (§1) A two-fold broth microdilution method described in our previous paper was used to determine the antimicrobial activities of parental and hybrid peptides. More than 30 strains including Gram-negative bacteria, Gram-positive bacteria and fungi were used in the current assay, in which the standard strains were stored in our lab and the clinical strains were collected from local hospitals. Briefly, bacteria were incubated in Mueller-Hinton broth (MH broth) at 37 °C to exponential phase and diluted to 10^6 CFU/mL. A serial dilution of peptide sample were prepared in 96-well microtiter plates (50 μL) and mixed with equal volume of microbial inoculums (50 μL). The plate was slowly shaken in the microbial incubator, and measured at A595 after incubation at 37 °C for 18 h. The minimal concentrations at which no microbial growth occurred were recorded as MIC (minimal inhibitory concentration) values. The traditional antibiotic ampicillin was used as positive control. The results are shown in an average of the MICs obtained from three independent experiments.

C. albican = assay type: cell-based; conditions: 18 h
Protocol: as §1

E. coli 08040726 = assay type: cell-based; conditions: 08040726, 18 h
Protocol: as §1

E. coli = assay type: cell-based; conditions: 18 h
Protocol: as §1

P. aeruginosa = assay type: cell-based; conditions: 18 h
Protocol: as §1

P. mirabilis = assay type: cell-based; conditions: 18 h
Protocol: as §1

S. aureus = assay type: cell-based; conditions: 18 h
Protocol: as §1

S. dysenteria = assay type: cell-based; conditions: two-fold broth microdilution, MH broth, 37 °C, 18 h, A595; mean of three independent experiments in duplicate
Protocol: as §1

Aeromonas veronii = test: microbe, parasite or virus in culture; assay type: cell-based; conditions: 18 h
Procedure, shortened: (§2)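 MH broth, 2-fold serial peptide dilution; inoculum 10^6 CFU/mL before equal-volume mixing. 37 °C, 18 h, gentle shaking, A595 read. MIC = no-growth endpoint, mean of 3 independent runs.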

[1] = tested on: Bacillus subtilis 08042313; test: microbe, parasite or virus in culture; assay type: cell-based; conditions: 08042313, 18 h
Procedure, shortened: as §2

[2] = tested on: Candida albicans 08030102; test: microbe, parasite or virus in culture; assay type: cell-based; conditions: 08030102, 18 h
Procedure, shortened: as §2

E. Coli 08032823 = test: microbe, parasite or virus in culture; assay type: cell-based; conditions: 08032823, 18 h
Procedure, shortened: as §2

[3] = tested on: Enterococcus faecium 08052315; test: microbe, parasite or virus in culture; assay type: cell-based; conditions: 08052315, 18 h
Procedure, shortened: as §2

[4] = tested on: Escherichia coli ATCC25922; test: microbe, parasite or virus in culture; assay type: cell-based; conditions: ATCC25922, 18 h
Procedure, shortened: as §2

K. Pneumoniae 08031012 = test: microbe, parasite or virus in culture; assay type: cell-based; conditions: 08031012, 18 h
Procedure, shortened: as §2

K. Pneumoniae 08040202 = test: microbe, parasite or virus in culture; assay type: cell-based; conditions: 08040202, 18 h
Procedure, shortened: as §2

[5] = tested on: Nocardia asteroides 08052412; test: microbe, parasite or virus in culture; assay type: cell-based; conditions: 18 h
Procedure, shortened: as §2

P. Aeruginosa 08021015 = test: microbe, parasite or virus in culture; assay type: cell-based; conditions: 08021015, 18 h
Procedure, shortened: as §2

Proteus mirabilis 1376 = test: microbe, parasite or virus in culture; assay type: cell-based; conditions: 1376, 18 h
Procedure, shortened: as §2

S. Aureus 08032615 = test: microbe, parasite or virus in culture; assay type: cell-based; conditions: 08032615, 18 h
Procedure, shortened: as §2

S. Aureus 08032706 = test: microbe, parasite or virus in culture; assay type: cell-based; conditions: 08032706, 18 h
Procedure, shortened: as §2

S. Aureus 08032810 = test: microbe, parasite or virus in culture; assay type: cell-based; conditions: 08032810, 18 h
Procedure, shortened: as §2

S. Maltophilia 090223 = test: microbe, parasite or virus in culture; assay type: cell-based; conditions: 090223, 18 h
Procedure, shortened: as §2

[6] = tested on: Shigella dysenteriae 0804203; test: microbe, parasite or virus in culture; assay type: cell-based; conditions: Gram-negative; two-fold broth microdilution, MH broth, 37 °C, 18 h; mean of three independent experiments in duplicates
Procedure, shortened: as §2

Vibrio harveyi = test: microbe, parasite or virus in culture; assay type: cell-based; conditions: 18 h
Procedure, shortened: as §2

trypsin = test: Protease stability, RP-HPLC analysis of degradation; assay type: in vitro ADME; conditions: trypsin, 300:1, 0.1 M NH4HCO3 pH 8.2, 37 °C, 6 h; RP-HPLC; Fig. 4
Protocol: To further examine the stability of TIH3F incubated with enzymes (trypsin and protease K) over time, the LC analysis of peptide degradation over a series of time spans (0, 6, 12, 24 h) was performed. TIH3F and protease solution were prepared in 0.1 M NH4HCO3 buffer (pH 8.2) to final molar ratio of 300:1, and incubated at 37 °C for 6, 12, and 24 h, respectively. Then 150 μL aliquots were taken at given time intervals, diluted with 150 μL of water/acetonitrile (60/40 v/v) containing 2% TFA, and analyzed by RP-HPLC (Thermo Scientific Syncronis C18 column, 250 mm × 4.6 mm, 5 μm), eluted with acetonitrile/water (containing 0.1% TFA) mixture of linear gradient concentration.

[7] = 20% fresh human serum, 37 °C, colonies surviving 1 × MIC, Fig. 3B
trypsin or proteinase K = conditions: peptide:protease 300/1 mol/mol, 30 min, 37 °C, then 1 × MIC 2 h with E. coli, S. aureus, C. albicans; colony counting; Fig. 3E
[8] = tested on: C. albicans biofilm formation; test: Biofilm inhibition assay (XTT); assay type: cell-based; conditions: Candida albicans, 4 μg/mL, 36 h, 35 °C, Fig. 2A
Protocol: TIH3F that has the best antifungal activity among the four peptides was chosen to examine the effect on the C. albicans biofilm formation and the established biofilm using previously described method with minor modifications. In the biofilm inhibition assay, after the incubation at 35 °C, C. Albicans was diluted to 1 × 10^6 CFU/mL in RPMI-1640 medium. Then 2 mL culture was added to each well of 6-well plates with coverslips at the bottom, and incubated at 35 °C in a humid chamber for 3 h. Non-adherent cells were then washed away by PBS, and series concentrations of TIH3F (0, 1, 2, 4 μg/mL) were added into the plate, with amphotericin B as control. The formation of the biofilm was determined by the XTT Cell Proliferation and Cytotoxicity Kit (KeyGEN BioTECH, Nanjing, China) after 36-h incubation. In the biofilm disruption assay, the biofilm was preformed as described above but with a longer incubation time up to 72 h. Then TIH3F and amphotericin B of series concentrations (0, 2.5, 5, 10, 25, 50 μg/mL) was added after non-adherent cells were washed out. The measurement of remaining biofilm was then determined. […] After washing with PBS, the plate was immediately photographed with fluorescence microscope.

[9] = tested on: established C. albicans biofilm; test: Biofilm disruption assay, established biofilm (XTT, PI/SYBR Green I); assay type: cell-based; conditions: 5 μg/mL, biofilm preformed 72 h, XTT metabolic activity; Fig. 2B
Protocol: TIH3F that has the best antifungal activity among the four peptides was chosen to examine the effect on the C. albicans biofilm formation and the established biofilm using previously described method with minor modifications. In the biofilm inhibition assay, after the incubation at 35 °C, C. Albicans was diluted to 1 × 10^6 CFU/mL in RPMI-1640 medium. Then 2 mL culture was added to each well of 6-well plates with coverslips at the bottom, and incubated at 35 °C in a humid chamber for 3 h. Non-adherent cells were then washed away by PBS, and series concentrations of TIH3F (0, 1, 2, 4 μg/mL) were added into the plate, with amphotericin B as control. The formation of the biofilm was determined by the XTT Cell Proliferation and Cytotoxicity Kit (KeyGEN BioTECH, Nanjing, China) after 36-h incubation. In the biofilm disruption assay, the biofilm was preformed as described above but with a longer incubation time up to 72 h. Then TIH3F and amphotericin B of series concentrations (0, 2.5, 5, 10, 25, 50 μg/mL) was added after non-adherent cells were washed out. The measurement of remaining biofilm was then determined. In order to further confirm the antifungal effect of TIH3F against C. albicans encased in biofilms, the established biofilm was treated with TIH3F (0, 5, 50 μg/mL), washed three times with PBS, and finally stained with 1 mL 1000-fold diluted PI/SYBR Green I at 30 °C in the dark for 20 min. After washing with PBS, the plate was immediately photographed with fluorescence microscope.

## CC(C)C[C@H](NC(=O)[C@H](CCCNC(=N)N)NC(=O)[C@H](CCCCN)NC(=O)[C@H](Cc1ccccc1)NC(=O)[C@H](Cc1ccccc1)NC(=O)[C@@H](N)CCCCN)C(=O)N[C@@H](CC(C)C)C(=O)N[C@@H](CCCCN)C(=O)N[C@@H](CO)C(=O)N[C@H](C(=O)N[C@@H](CCCNC(=N)N)C(=O)N[C@@H](CCCNC(=N)N)C(=O)N[C@@H](C)C(=O)N[C@H](C(=O)N[C@@H](CCCCN)C(=O)N[C@@H](CCCCN)C(=O)N[C@@H](Cc1ccccc1)C(N)=O)C(C)C)C(C)C [Hc3] (H-KFFKRLLKSVRRAVKKF-NH2)
B. subtilis
  MIC B. subtilis: 9.38 µg/mL (≈ 4.36 µM)
C. albican
  MIC C. albican: 9.38 µg/mL (≈ 4.36 µM)
E. coli 08040726
  MIC E. coli 08040726: 37.5 µg/mL (≈ 17.4 µM)
E. coli
  MIC E. coli: 18.75 µg/mL (≈ 8.72 µM)
P. aeruginosa
  MIC P. aeruginosa: 9.38 µg/mL (≈ 4.36 µM)
P. mirabilis
  MIC P. mirabilis: 4.68 µg/mL (≈ 2.18 µM)
S. aureus
  MIC S. aureus: 9.38 µg/mL (≈ 4.36 µM)
S. dysenteria
  MIC S. dysenteria: 2.34 µg/mL (≈ 1.09 µM)
Aeromonas veronii
  MIC Aeromonas veronii: 9.38 µg/mL (≈ 4.36 µM)
[1]
  MIC Bacillus subtilis 08042313: 9.38 µg/mL (≈ 4.36 µM)
[2]
  MIC Candida albicans 08030102: 9.38 µg/mL (≈ 4.36 µM)
E. Coli 08032823
  MIC E. Coli 08032823: 9.38 µg/mL (≈ 4.36 µM)
[3]
  MIC Enterococcus faecium 08052315: 9.38 µg/mL (≈ 4.36 µM)
[4]
  MIC Escherichia coli ATCC25922: 18.75 µg/mL (≈ 8.72 µM)
K. Pneumoniae 08031012
  MIC K. Pneumoniae 08031012: 75 µg/mL (≈ 34.9 µM)
K. Pneumoniae 08040202
  MIC K. Pneumoniae 08040202: 75 µg/mL (≈ 34.9 µM)
[5]
  MIC Nocardia asteroides 08052412: 4.69 µg/mL (≈ 2.18 µM)
P. Aeruginosa 08021015
  MIC P. Aeruginosa 08021015: 9.38 µg/mL (≈ 4.36 µM)
Proteus mirabilis 1376
  MIC Proteus mirabilis 1376: 4.68 µg/mL (≈ 2.18 µM)
S. Aureus 08032615
  MIC S. Aureus 08032615: 9.38 µg/mL (≈ 4.36 µM)
S. Aureus 08032706
  MIC S. Aureus 08032706: 75 µg/mL (≈ 34.9 µM)
S. Aureus 08032810
  MIC S. Aureus 08032810: 75 µg/mL (≈ 34.9 µM)
S. Maltophilia 090223
  MIC S. Maltophilia 090223: 9.38 µg/mL (≈ 4.36 µM)
[6]
  MIC Shigella dysenteriae 0804203: 2.34 µg/mL (≈ 1.09 µM)
Vibrio harveyi
  MIC Vibrio harveyi: 18.75 µg/mL (≈ 8.72 µM)
trypsin
  degradation by trypsin: the majority of which was rapidly digested
[7]; 3 h
  bactericidal ability after incubation with human serum: dropped more than half
[7]; 6 h
  kill (%) after incubation with human serum: almost diminished
[7]; 36 h
  kill (%) / antimicrobial activity kept after incubation with human serum: lost its bacterial inhibitory activity
Trypsin or proteinase K
  antimicrobial activity after treatment with trypsin or proteinase K: almost lost its bactericidal ability

## C[C@@H]1[C@H](O)[C@@H](C)/C=C/C=C/C=C/C=C/C=C/C=C/C=C/[C@H](O[C@@H]2O[C@H](C)[C@@H](O)[C@H](N)[C@@H]2O)C[C@@H]2O[C@](O)(C[C@@H](O)C[C@@H](O)[C@H](O)CC[C@@H](O)C[C@@H](O)CC(=O)O[C@H]1C)C[C@H](O)[C@H]2C(=O)O [amphotericin B, reference compound]
[8]
  inhibition at 4 µg/mL: 25%
[9]
  damage of established C. albicans biofilm: remained intact
